{"source": "paper PMC12278908", "about": "“Genome integrity sensing by the broad-spectrum Hachiman antiphage defense complex” (Cell, 2024)", "molecular_target": "T1, HamAB (Escherichia coli, UniProt A0A426EXV0)", "T1 construct": "gene DU321_04165; native locus coexpressed in E. coli BL21-AI; only HamA tagged 10xHis-MBP-TEV, TEV-treated; 1:1 heterodimer; with Hachiman antiphage defense system nuclease HamA (DUF1837 domain-containing protein)", "T1 sequence (A0A426EXV0 1-1174)": "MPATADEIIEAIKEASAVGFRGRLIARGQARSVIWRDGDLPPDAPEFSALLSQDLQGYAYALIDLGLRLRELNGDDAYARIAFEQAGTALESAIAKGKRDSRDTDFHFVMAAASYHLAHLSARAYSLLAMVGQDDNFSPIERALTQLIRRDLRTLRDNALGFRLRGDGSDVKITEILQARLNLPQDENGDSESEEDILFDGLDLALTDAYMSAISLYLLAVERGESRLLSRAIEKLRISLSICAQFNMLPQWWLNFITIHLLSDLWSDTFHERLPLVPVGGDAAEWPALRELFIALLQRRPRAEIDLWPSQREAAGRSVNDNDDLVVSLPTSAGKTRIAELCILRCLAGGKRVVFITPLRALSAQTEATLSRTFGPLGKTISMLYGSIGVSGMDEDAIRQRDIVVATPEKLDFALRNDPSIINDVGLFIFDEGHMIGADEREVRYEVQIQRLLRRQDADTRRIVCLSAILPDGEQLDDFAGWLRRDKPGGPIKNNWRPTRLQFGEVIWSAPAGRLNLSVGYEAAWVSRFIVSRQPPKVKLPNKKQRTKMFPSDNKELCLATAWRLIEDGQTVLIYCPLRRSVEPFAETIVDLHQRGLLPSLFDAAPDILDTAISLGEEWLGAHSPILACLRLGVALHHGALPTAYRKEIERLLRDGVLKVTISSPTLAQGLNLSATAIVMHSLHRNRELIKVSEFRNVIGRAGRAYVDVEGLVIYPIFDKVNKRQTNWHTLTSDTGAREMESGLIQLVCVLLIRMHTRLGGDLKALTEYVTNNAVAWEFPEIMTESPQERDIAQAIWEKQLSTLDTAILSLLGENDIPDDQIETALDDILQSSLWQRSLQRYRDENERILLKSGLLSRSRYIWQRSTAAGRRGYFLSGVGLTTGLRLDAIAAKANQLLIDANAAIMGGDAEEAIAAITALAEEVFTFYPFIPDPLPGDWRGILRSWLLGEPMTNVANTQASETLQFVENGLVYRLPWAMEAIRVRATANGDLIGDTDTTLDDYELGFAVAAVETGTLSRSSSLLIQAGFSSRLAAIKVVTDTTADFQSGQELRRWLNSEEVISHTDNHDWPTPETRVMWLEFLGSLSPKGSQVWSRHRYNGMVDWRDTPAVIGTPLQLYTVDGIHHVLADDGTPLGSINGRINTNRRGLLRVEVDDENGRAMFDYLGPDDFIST", "T1 sequence (Q6XGE5 1-259 partner)": "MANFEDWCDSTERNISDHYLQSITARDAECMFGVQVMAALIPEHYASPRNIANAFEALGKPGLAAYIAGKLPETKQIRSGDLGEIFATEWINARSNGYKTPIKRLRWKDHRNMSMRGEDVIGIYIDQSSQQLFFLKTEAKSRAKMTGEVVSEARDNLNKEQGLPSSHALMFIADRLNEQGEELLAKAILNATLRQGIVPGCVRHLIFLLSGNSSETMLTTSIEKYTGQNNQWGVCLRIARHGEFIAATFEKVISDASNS", "experiment": "malachite green phosphate release ATPase assay", "format": "biochemical", "conditions": "with or without supercoiled plasmid DNA; 1 mM ATP, 2 mM MgSO4, pH 8.8, 37 °C"}
{"smiles": "Nc1ncnc2c1ncn2[C@@H]1O[C@H](COP(=O)(O)OP(=O)(O)OP(=O)(O)O)[C@@H](O)[C@H]1O", "note": "[ATP]", "values": [{"measurement": "malachite green phosphate release ATPase assay", "value": "ATPase assays with HamB, HamAB, and HamA*B in the presence of plasmid DNA"}]}
